Experimental data published in paper PMC9141032 (International Journal of Molecular Sciences, 2022).

Experiments:
[1] = test system: imidazoline I2 receptors (I2-IR); set-up: method as in ref 32, 33 = [32]; 32. Escolano C. Pallás M. Griñán-Ferré C. Abás S. Callado L.-F. García-Sevilla J.A. Synthetic I 2 Imidazoline Receptor Ligands for Prevention or Treatment of Human Brain Disorders Patent WO 2019/12185 || [33]; PMID 32150414; doi:10.1021/acs.jmedchem.9b02080; 33. Abás S. Rodríguez-Arévalo S. Bagán A. Griñán-Ferré C. Vasilopoulou F. Brocos-Mosquera I. Muguruza C. Pérez B. Molins E. Luque F.J. Bicyclic α-Iminophosphonates as High Affinity Imidazoline I 2 Rec; conditions: cited from earlier work
[2] = test system: SAMP8 murine model; conditions: cited from earlier work
[3] = Metabolic profiling in mouse liver microsomes (LC-HRMS); assay type: in vitro ADME
Description: (§1) The objective of the study is to evaluate the formation of the main metabolites from B06 in HLM incubations and MLM incubations preceding the in vivo metabolic study, using these same incubations to identify the possible metabolites. […] Reactions without NADPH were also incubated to rule out non-NADPH metabolism or chemical instability in the incubation buffer. Verapamil was included as positive control to monitor incubation course. All reactions were terminated using 60 µL of ice-cold acetonitrile at 0, 5, 15, 30, 45, and 60 min. The plates were centrifugated at 3500 rpm for 15 min. All experiments were conducted in triplicates. Samples were analysed by LC-HMRS in positive ionization mode. Compound incubations without NADPH and compound reference standard were used as interference control for each incubation sample.
Metabolic profiling of B06 in mouse liver microsomes
The equipment used for the analysis wa s an Agilent 1290 Infinity UHPC, ABSciex 5600 QTOF Mass Spectrometer, Metabolite Pilot V 1.5 Sofware.
Method: ionization mode, electrospray positive; acquisition mode, TOF MS with IDA MS/MS; colum, Atlantis T3 C18, 2.1 x 15 mm, 3 μ m; mobile phase, water:acetonitrile: 0.1% formic acid; flow […]
All the tentative identified metabolites have been evaluated using of a score (40 value). This score depend on mass defect, isotope pattern, mass accuracy and MS/MS. In all the cases the score was equal or greater than 68%.
All analytical determinations of B06 were performed in according to the recommendations of the […]
Table S10. Metabolite time course in MLM incubations for B06
Peak Description Time Formula m/z Mass R.T. Peak Area % %
ID incubation error (min) Area Score
1 Safety testing of drug metabolites. Guidance for industry. U.S. Department of Health and Human Services Food and Drug Administration Center for Drug Evaluation and Research (CDER) March 2020 Pharmacology/Toxicology. https://www.fda.gov/regulatory‐information/search‐fda‐guidance‐ documents/safety‐testing‐drug‐metabolites

[4] = Metabolic profiling in human liver microsomes (LC-HRMS); assay type: in vitro ADME
Description: as §1
Metabolic profiling of B06 in human liver microsomes
The equipment used for the analysis was an Agilent 1290 Infinity UHPC, ABSciex 5600 QTOF Mass Spectrometer, Metabolite Pilot V 1.5 Sofware.
Method: ionization mode, electrospray positive; acquisition mode, TOF MS with IDA MS/MS; […]
All the tentative identified metabolites have been evaluated using of a score (40 value). This score depend on mass defect, isotope pattern, mass a ccur a cy and MS/MS. In all the cases the score was equal or greater than 68%.
Table S9. Metabolite time course in HLM incubations for B06
Peak Description Time Formula m/z Mass R.T. Peak % %
ID incubation error (min) Area Area Score […]

Compound: c1ccc2c(c1)OCC(C1=NCCN1)O2 (stereo not shown) [idazoxan]
- ratio of I2/α2 ([1]; I2-IR ([3H]2-BFI) versus α2-AR ([3H]RX821002), human frontal cortex): non I2/α2 selectivity
- pKi ([1]; membranes of post mortem human frontal cortex, against [3H]2-BFI): 7.41 ± 0.63

Compound: CCOP(=O)(OCC)C1(c2ccccc2)N=CN(Cc2ccc(F)c(Cl)c2)C1(C)C (stereo not shown) [MCR5]
- effect on cognition and hallmarks [2]: cognitive improvement and amelioration of hallmarks

Compound: CCOP(=O)(O)[C@]1(c2ccccc2)N=C[C@H]2C(=O)N(c3ccc(F)c(Cl)c3)C(=O)[C@H]21 [Compound 1, ethyl hydrogen [(1R,3aS,6aS)-5-(3-chloro-4-fluorophenyl)-4,6-dioxo-1-phenyl-1,3a,4,5,6,6a-hexahydropyrrolo[3,4-c]pyrrol-1-yl]phosphonate]
- % Area of metabolite in chromatogram ([3]; MLM incubation of B06, 5 min): 10.7%
- % Area of metabolite in chromatogram ([3]; MLM incubation of B06, 15 min): 30.9%
- % Area of metabolite in chromatogram ([3]; MLM incubation of B06, 30 min): 60.9%
- % Area of metabolite in chromatogram ([3]; MLM incubation of B06, 45 min): 81.6%
- % Area of metabolite in chromatogram ([3]; MLM incubation of B06, 60 min): 88.9%
- % Area of metabolite in chromatogram ([4]; HLM incubation of B06, 15 min): 8.4%
- % Area of metabolite in chromatogram ([4]; HLM incubation of B06, 30 min): 17.8%
- % Area of metabolite in chromatogram ([4]; HLM incubation of B06, 45 min): 26.2%
- % Area of metabolite in chromatogram ([4]; HLM incubation of B06, 60 min): 36%
- % Area of metabolite in chromatogram ([4]; HLM incubation of B06, 60 min, listed as M1): 36.0%
